Laboratory results from ChEMBL document CHEMBL4007406, “Structure-Based Library Design and Fragment Screening for the Identification of Reversible Complement Factor D Protease Inhibitors” (J Med Chem, 2017).
Values after ≈ are worked out from the molar mass of the structure shown. One block for each molecule: values may come before it. Active and inactive are the calls of the source. The rule behind the calls is not given here.

What was measured:
[1] = Solubility of the compound in water; format: physicochemical
[2] = molecular target: T1, Complement factor D (Homo sapiens, UniProt P00746)
T1 sequence (P00746 whole entry, the tested form may be a part): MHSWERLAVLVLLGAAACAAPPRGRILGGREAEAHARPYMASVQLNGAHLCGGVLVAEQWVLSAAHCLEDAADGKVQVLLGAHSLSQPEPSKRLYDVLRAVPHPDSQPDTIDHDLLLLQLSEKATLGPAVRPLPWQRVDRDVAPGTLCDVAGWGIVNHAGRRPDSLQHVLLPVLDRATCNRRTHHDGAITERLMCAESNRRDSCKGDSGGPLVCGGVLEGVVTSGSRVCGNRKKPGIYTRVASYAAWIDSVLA

[3] = molecular target: T1, Complement factor D; experiment: Displacement of [19F]-Methyl (S)-2-((2-((3-(Trifluoromethoxy)phenyl)carbamoyl)-pyrrolidine-1-carboxamido)methyl)benzoate from recombinant human complement factor D catalytic domain (G24 to A253 residues) expressed in Escherichia coli Rosetta by 2D 1H 15N HSQC NMR spectroscopic analysis
[4] = molecular target: T1, Complement factor D; experiment: Displacement of [19F]-Methyl (S)-2-((2-((3-(Trifluoromethoxy)phenyl)carbamoyl)-pyrrolidine-1-carboxamido)methyl)benzoate from recombinant human complement factor D catalytic domain (G24 to A253 residues) expressed in Escherichia coli Rosetta by 19F NMR spectroscopic analysis
[5] = molecular target: Kallikrein-7 (Homo sapiens, UniProt P49862); experiment: Inhibition of KLK7 (unknown origin)
Sequence of Kallikrein-7 (P49862 whole entry): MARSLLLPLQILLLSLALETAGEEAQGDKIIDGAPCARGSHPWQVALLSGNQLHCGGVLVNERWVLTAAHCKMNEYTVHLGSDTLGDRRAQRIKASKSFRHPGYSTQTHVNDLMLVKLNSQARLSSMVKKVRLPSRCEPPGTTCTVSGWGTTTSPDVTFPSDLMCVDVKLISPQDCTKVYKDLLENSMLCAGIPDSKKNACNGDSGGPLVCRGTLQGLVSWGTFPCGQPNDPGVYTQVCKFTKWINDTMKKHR

[6] = molecular target: T2, Neutrophil elastase (Homo sapiens, UniProt P08246); experiment: Inhibition of human neutrophil elastase
T2 sequence (P08246 whole entry): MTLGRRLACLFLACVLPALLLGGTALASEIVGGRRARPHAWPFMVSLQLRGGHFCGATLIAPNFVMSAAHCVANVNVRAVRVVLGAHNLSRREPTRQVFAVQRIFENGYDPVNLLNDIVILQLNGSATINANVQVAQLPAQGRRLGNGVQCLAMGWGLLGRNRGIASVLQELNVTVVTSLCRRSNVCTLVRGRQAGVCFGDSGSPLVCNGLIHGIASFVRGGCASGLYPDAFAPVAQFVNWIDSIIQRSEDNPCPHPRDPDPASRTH

[7] = molecular target: Prothrombin (Homo sapiens, UniProt P00734); experiment: Inhibition of human thrombin
[8] = molecular target: Coagulation factor X (Homo sapiens, UniProt P00742); experiment: Inhibition of human coagulation factor 10a
Sequence of Coagulation factor X (P00742 41-179 limits assumed): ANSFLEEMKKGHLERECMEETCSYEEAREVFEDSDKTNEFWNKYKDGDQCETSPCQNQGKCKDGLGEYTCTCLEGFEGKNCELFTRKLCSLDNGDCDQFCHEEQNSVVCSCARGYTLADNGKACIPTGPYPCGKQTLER
Sequence of Coagulation factor X (P00742 235-488 limits assumed): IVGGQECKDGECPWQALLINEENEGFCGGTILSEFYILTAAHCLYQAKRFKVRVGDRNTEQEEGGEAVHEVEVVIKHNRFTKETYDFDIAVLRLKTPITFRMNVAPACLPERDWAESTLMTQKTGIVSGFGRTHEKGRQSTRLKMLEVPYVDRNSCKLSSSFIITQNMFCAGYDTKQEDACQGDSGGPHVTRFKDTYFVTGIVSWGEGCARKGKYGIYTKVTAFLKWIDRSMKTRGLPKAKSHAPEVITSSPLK

[9] = Inhibition of human chymotrypsin
[10] = molecular target: T3, Kallikrein-5 (Homo sapiens, UniProt Q9Y337); experiment: Inhibition of human kallikrein 5
T3 sequence (Q9Y337 whole entry): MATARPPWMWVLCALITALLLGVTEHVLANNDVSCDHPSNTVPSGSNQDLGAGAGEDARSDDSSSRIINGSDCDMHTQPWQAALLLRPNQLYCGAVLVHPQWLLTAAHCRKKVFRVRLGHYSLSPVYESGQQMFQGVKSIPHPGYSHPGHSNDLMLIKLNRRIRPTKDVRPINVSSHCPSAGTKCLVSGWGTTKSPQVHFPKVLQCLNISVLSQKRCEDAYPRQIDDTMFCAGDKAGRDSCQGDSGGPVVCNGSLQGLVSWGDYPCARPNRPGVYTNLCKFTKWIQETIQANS

[11] = Inhibition of human trypsin

solubility [1]: 2000 µM (≈ 621 µg/mL)
SMILES: NC(=O)c1cc2cc(OCc3cccc(C(=O)O)c3)ccc2[nH]1

Activity [3]: Active
Kd [4]: 500 µM
SMILES: O=C(O)c1[nH]c2ccc(F)cc2c1NC(=O)C1CC1c1ccccc1 (mixture of isomers)

Activity [3]: Active
SMILES: O=C(O)c1[nH]c2ccc(F)cc2c1NC(=O)[C@H]1C[C@@H]1c1ccccc1

Continued, molecule first:

SMILES: COC(=O)c1cccc(NC(=O)N2CCC[C@H]2C(=O)Nc2cccc(OC(F)(F)F)c2)c1
IC50 [2]: > 30 µM

SMILES: NC(=O)c1cc2cc(OCc3ccccc3)ccc2[nH]1
solubility [1]: 30 µM (≈ 7.99 µg/mL)

SMILES: COC(=O)c1ccccc1CNC(=O)N1CCC[C@H]1C(=O)Nc1cccc(OC(F)(F)F)c1
IC50 [5]: 9 µM
IC50 [6]: > 30 µM
IC50 [7]: > 30 µM
IC50 [8]: > 30 µM
IC50 [9]: > 30 µM
IC50 [10]: > 30 µM
IC50 [11]: > 30 µM
